Literature values in patent publication US20120142631A1, “MEDICINAL ANTIDIAPER RASH CREAM INCORPORATING A BIOPOLYMER AND A PROCESS TO MAKE IT” (APEX LABORATORIES PRIVATE LIMITED, priority 2009, published 2012).
Where two headings read alike, the source gives them in different places.

In the case of `CCCCCCCCCCCCC[N+](C)(C)Cc1ccccc1.[Cl-]` [Benzalkonium chloride, benzyl-dimethyl-tridecyl-azanium chloride], the Solubility (acetone) is listed as “readily soluble”, the Solubility (ethanol) is listed as “readily soluble” and the Solubility / miscibility (ethanol (95%)) is listed as “miscible”. The Solubility / miscibility (water) was “miscible”.

For `CCCCCCCCCCCCCC[N+](C)(C)C.[Br-]` [Cetrimide, tetradecyltrimethylammonium bromide], the Solubility (chloroform) is listed as “freely soluble”, the Solubility / miscibility (ethanol (95%)) is listed as “freely soluble” and the Solubility (ether) is listed as “practically insoluble”. For the same compound, the Solubility / miscibility (water) was “freely soluble”.
